In ChEMBL document CHEMBL3507680, “University of Dundee, Gates Library screen for HepG2 cell viability” one finds cytotoxicity data, which are given here for 98 compounds.

The series in a line: Human HepG2 cell viability assay in 384 well format. More on the design: dose 125 nL, time 70.5 hour; cytotoxicity at 70.5 h: concentration not given beside the values. The following applies: HepG2 cells, read-out: Inhibition. It is filed as toxicity, cell-based.
Turning to `CCCn1ccnc1CN1CCN(C2CCOCC2)CC(C(N)=O)C1` (stereo not drawn), the cytotoxicity at 70.5 h was -10.4%.
Turning to `C[C@@H]1C[C@H]2CN(C(=O)c3cccc4c3OCCO4)C[C@H]2O1`, the cytotoxicity at 70.5 h is -8.32%.
In the case of `O=C(NCCc1c[nH]cn1)C1CCCN(Cc2ccco2)C1` (stereo not drawn), the cytotoxicity at 70.5 h is -1.6%.
In the case of `CCN(Cc1ccc2c(c1)OCO2)C(=O)NC(C)Cn1cccn1` (stereo not drawn), the cytotoxicity at 70.5 h is -12.9%.
In the case of `CC(=O)N1CC2(CCN(S(=O)(=O)N(C)C)CC2)C2(CCNC2=O)C1` (stereo not drawn), the cytotoxicity at 70.5 h is -1.55%.
Then `O=C(c1ccccc1F)N1CCC2(CC1)CC(Oc1ccccn1)CO2` (stereo not drawn), with -4.93%.
Then `C=C(C)CN1CCN(Cc2nccn2C)C(C)C1` (stereo not drawn), with 30.2%; and `Cc1cc2nc(CN(C)c3ccccc3)cc(=O)n2o1`, with 3.13%; and `Cn1cc(C(=O)N2CCCCC2CCc2ccc(O)cc2)cn1` (stereo not drawn), with -10.3%.
To `Cc1cc(CN2CCN(C(=O)NC(C)c3cccnc3)CC2)on1` (stereo not drawn) belongs -11.7%.
For `CC(C)C(NC(=O)c1ccccc1)C(=O)N1CCC2(CC1)OCCO2` (stereo not drawn), the cytotoxicity at 70.5 h was 17.2%.
To `CS(=O)(=O)NC1CCN(Cc2ccc(OCc3ccccn3)cc2)CC1` belongs -5.51%.
`CC(C)N1CCOCC2(CN(Cc3nccs3)CCO2)C1` (stereo not drawn): the cytotoxicity at 70.5 h was -0.368%.
Turning to `N#Cc1c(Cl)nsc1NCc1ccc(N2CCC(CO)CC2)cc1`, the cytotoxicity at 70.5 h was -0.689%.
For the compound `COC(=O)c1ccc(NCc2csc(C)n2)cc1Cl`, the cytotoxicity at 70.5 h was -6.69%.
To `CNC(=O)[C@@H]1C[C@H]2CN(Cc3c(C)noc3C)C[C@H]2N1C(C)C` belongs -7.3%.
Then `OC1(CN2CCCC2)COCCN(c2nccs2)C1` (stereo not drawn), with 37.8%; and `Cc1n[nH]c(C)c1NC(=O)NCc1cc[nH]n1`, with -12.5%; and `OCC(O)CSCc1cn(-c2ccc(F)c(Cl)c2)nn1` (stereo not drawn), with -7.46%.
With `CC(NS(C)(=O)=O)c1nc(-c2ccc(Br)cc2)no1` (stereo not drawn), the cytotoxicity at 70.5 h is -5.32%.
For `N[C@@H]1c2ccccc2C2(CCN(c3ncccc3C(F)(F)F)CC2)[C@H]1O`, the cytotoxicity at 70.5 h stood at 44.1%.
Then `COCCCN1C(=O)CC[C@H]2CN(Cc3ccc4nonc4c3)CC[C@H]21`, with -5.42%; and `CCCC(O)CN1CCC(=O)N(CCOC)Cc2cc3c(cc21)OCO3` (stereo not drawn), with 18.9%.
Regarding `Cc1cc(C)nc(N2CCCC2c2[nH]ncc2C(=O)N(C)C)n1` (stereo not drawn), the cytotoxicity at 70.5 h was -3.67%.
To `CC(C)OCc1ncn2c1CN(Cc1cnn(C)c1)CCC2` belongs 0.691%; to `COc1ccccc1CN1CC[C@H]2[C@@H](C1)[C@H](c1ccsc1)CN2C(C)=O`, 18.4%.
To `O=c1ccc(-n2ccnc2)nn1CCNS(=O)(=O)c1ccc(Cl)s1` belongs 3.04%.
To `Cc1noc(C2CCN(C(C)c3nc(C4CC4)no3)CC2)n1` (stereo not drawn) belongs -16.9%; to `Cc1nn(C)c(C)c1CC(=O)N1CCCC(n2ccnc2C)C1` (stereo not drawn), -2.12%; to `CC(NC(=O)NCCC(=O)OC(C)(C)C)c1nncn1C` (stereo not drawn), -0.412%.
For the compound `Cc1ccc(C(=O)Nc2cn[nH]c2)cc1F`, the cytotoxicity at 70.5 h turned out to be 13.5%.
Turning to `N#Cc1ccc(CCC(=O)N2CCCC(n3cncn3)C2)cc1` (stereo not drawn), the cytotoxicity at 70.5 h was -8.59%.
Regarding `CCc1nn(C)c(Cl)c1CN1CCN(c2ccc(C(N)=O)cn2)CC1`, the cytotoxicity at 70.5 h was -8.09%.
To `CC(C)C(NC(=O)NCC1CC1)c1nnc2n1CCC2` (stereo not drawn) belongs 3.11%.
For `CC(CNC(=O)c1ccc(Cl)cc1I)N1CCCC1` (stereo not drawn), the cytotoxicity at 70.5 h is -8.19%.
`O=C(CCC1CCN(C(=O)c2cc[nH]c2)CC1)NCc1cccc(Cl)c1`: the cytotoxicity at 70.5 h is -9.67%.
To `CC(C)N1CCC(Nc2ccn(Cc3ccccn3)n2)C1=O` (stereo not drawn) belongs 1.71%; to `CCN(C)C(=O)Cn1c(-c2ccco2)nn(-c2ccccc2OC)c1=O`, 0.98%.
Then `CC(c1cn2ccsc2n1)N1Cc2ncccc2C1=O` (stereo not drawn), with -4.52%; and `Cc1ncsc1C(=O)NCCOc1ncc(Cl)cc1Cl`, with 1.13%.
To `CN(Cc1csc(-c2ccccc2)n1)C(=O)CCNS(C)(=O)=O` belongs -8.29%; to `Cc1nn(C)c(C)c1NC(=O)CNC(c1ccc(F)cc1)C1CCC1` (stereo not drawn), -7.04%; to `O=C(NCc1ccoc1)NC1CCN(c2ncccn2)CC1`, 16.1%.
With `CN(Cc1ccccc1)CC(O)Cn1cnc2ccccc2c1=O` (stereo not drawn), the cytotoxicity at 70.5 h turned out to be 6.62%.
Then `COCCN1C(=O)[C@]2(CC[C@@H]3CN(S(=O)(=O)CC(C)C)C[C@@H]32)N=C1C`, with 13.1%; and `Cc1csc(C2CCCN(C(=O)c3cccc4c3OCO4)C2)n1` (stereo not drawn), with -4.7%; and `Cn1c(NCC(O)c2ccccc2F)c(C#N)c(=O)n(C)c1=O` (stereo not drawn), with -1.35%.
Then `COCc1cc(N(C)CCC(O)c2ccccc2)n2nccc2n1` (stereo not drawn), with -7.44%; and `CCc1c(C)nc2cc(C3CCN(Cc4cccnc4)C3)nn2c1O` (stereo not drawn), with -5.28%; and `Cc1c(C(=O)N2CCC(c3nc(C)n4ccsc34)CC2)cnn1C`, with -4.61%.
To `CCc1nc(C(=O)N2CC(C)CN(C)c3ccccc32)c[nH]1` (stereo not drawn) belongs -2.27%.
For the compound `CN(C)[C@@H]1CN(Cc2ccccc2O)C[C@H]1c1cn(C)c2ccccc12`, the cytotoxicity at 70.5 h came out at 44.4%.
To `Cc1cncc(C(=O)N2CCCC3(CCCN3S(C)(=O)=O)C2)c1` (stereo not drawn) belongs -8.81%; to `O=C(NCc1cccs1)[C@H]1CC[C@@H]2[C@@H](CCN2C2CCC2)O1`, -3.48%.
On to `CN(C)CCOCC1CN(C(=O)N2CCCC2)Cc2ccnn2C1` (stereo not drawn), for which the cytotoxicity at 70.5 h was -5.66%.
Take `COc1cc2nc(C)n(CC(=O)O)c(=O)c2cc1OC`: the cytotoxicity at 70.5 h was -8.36%.
To `CC(SCCC(=O)NC(N)=O)c1ccccc1F` (stereo not drawn) belongs -7.35%; to `CC(C)(C)N1CCN(C(=O)Nc2cc(C(F)(F)F)c[nH]c2=O)CC1`, 10.7%.
As to `O=C1NCCCCC1NC(=O)C1(c2ccc3c(c2)OCCO3)CCCC1` (stereo not drawn), the cytotoxicity at 70.5 h was found to be 27.7%.
With `O=S1(=O)COCCN1Cc1ccc(Cl)c(Cl)c1`, the cytotoxicity at 70.5 h is -6.71%.
Then `Cn1cc(N2CCC3(CCN(Cc4nccs4)C3)C2=O)cn1` (stereo not drawn), with -12.1%; and `O=C(NCCNc1cnccn1)N1CCN(c2nccs2)CC1`, with -8.94%.
As for `COc1ccc(OCCN(C)Cc2nc3c(cnn3C)c(=O)[nH]2)cc1`, the cytotoxicity at 70.5 h is -3.93%.
For `O=C(c1ccc(OCC2CC2)cc1)N1CCOCC1c1ncon1` (stereo not drawn), the cytotoxicity at 70.5 h worked out at 1.72%.
Then `CN(C)C(=O)CN1CCC2(CCCN(Cc3cccs3)C2)C1=O` (stereo not drawn), with -12.9%; and `CCc1ccsc1C(=O)N1CCN(CC(C)O)CC1` (stereo not drawn), with -2.62%.
To `CN(Cc1ccco1)[C@@H]1CN(Cc2nccs2)C[C@@H]2CCCO[C@@H]21` belongs -5.05%; to `Cc1ccsc1CNC(=O)N1CCC(Cc2cnn(C)c2)C1` (stereo not drawn), -3.88%; to `CN1CCO[C@@H]2CN(C(=O)NCc3cccc(F)c3)CC[C@@H]2C1`, -3.54%.
Then `CSc1ccc(C(=O)N2CC(=O)N(Cc3cccs3)CC(O)C2)cc1` (stereo not drawn), with -6.27%.
Take `O=S(=O)(C1CC1)N1CCC2(CC1)CC(Oc1cccnc1)CO2` (stereo not drawn): the cytotoxicity at 70.5 h is -11.5%.
Regarding `Cc1noc(CCNC(=O)NCc2ccc(OC3CCCC3)cc2)n1`, the cytotoxicity at 70.5 h was found to be 0.994%.
As for `COCCCN(C)S(=O)(=O)c1ccc(Cl)cc1C#N`, the cytotoxicity at 70.5 h is -14.2%.
Turning to `CC(C)c1nc2c(n1C)CCN(Cc1nc(-c3ccsc3)no1)C2`, the cytotoxicity at 70.5 h is -9.76%.
Take `COCCN1CC[C@]2(CN(Cc3ccccn3)C[C@H]2C)C1=O`: the cytotoxicity at 70.5 h was 1.87%.
Then `CNc1ncc(CN(C)C(=O)c2cccc(CC3CCNCC3)c2)cn1`, with 35%; and `Cc1ccc(S(=O)(=O)Cc2noc([C@@H]3C[C@@H](O)CN3C)n2)cc1`, with -2.56%.
Turning to `N[C@H]1CN(C(=O)Cc2cc(F)cc(Cl)c2)C[C@@H]1C1CC1`, the cytotoxicity at 70.5 h was -3.32%.
Turning to `CCS(=O)(=O)N1CCc2cc(C(=O)NC)c(NCC(C)C)nc2CC1`, the cytotoxicity at 70.5 h was -4.65%.
As to `CCN(CC(=O)NC)C(=O)Cc1nc(-c2ccco2)oc1C`, the cytotoxicity at 70.5 h is -7.15%.
To `Cn1cc(C2CCCN2C(=O)CCn2ccc3ccccc32)cn1` (stereo not drawn) belongs 3.44%.
To `O=C(NCc1ccon1)c1c(F)cc(Br)cc1F` belongs -3.14%; to `Cc1cc(NCc2noc(C(C)C)n2)nc(-c2ccccc2)n1`, 12.1%.
Regarding `COc1ccc(OCCN(C)CCCn2cnc3c(N)ncnc32)cc1`, the cytotoxicity at 70.5 h was -5.85%.
Regarding `Cn1cnn(CC(=O)NCc2ccccc2F)c1=O`, the cytotoxicity at 70.5 h was 20.6%.
Then `CC(C)N1CCC(C(=O)N(C)CC(=O)c2ccc(O)cc2)CC1`, with -17.5%; and `O=C(NCc1csc(Br)c1)c1cnccn1`, with -13.5%; and `CCc1noc(C2CCCCN2C(=O)c2ccc3c(c2)OCO3)n1` (stereo not drawn), with -4.04%.
For `COc1ccccc1C1(CNc2nnc(C)c(C)c2C#N)CCOCC1`, the cytotoxicity at 70.5 h was -5.67%.
On to `Cc1n[nH]c(C)c1CCC(=O)NCC1CCCN(C2CCCC2)C1` (stereo not drawn), for which the cytotoxicity at 70.5 h was 30.3%.
Then `O=C(Cc1ccsc1)N1C[C@@H]2OCCN(CC3CCCO3)[C@@H]2C1` (stereo partly drawn), with 7.05%.
For the compound `CCc1cccc2c(CC(=O)N(C)CCN(C)C)c(C)[nH]c12`, the cytotoxicity at 70.5 h was -8.74%.
Take `Cc1ccc(C(NC(=O)CC2CCN(C(C)C)CC2)C(=O)O)cc1` (stereo not drawn): the cytotoxicity at 70.5 h is -3.16%.
To `Cn1cc(CN2CCC3(CC2)CN(C(=O)c2cnccn2)CCO3)cn1` belongs -4.88%.
To `O=C(c1ccccc1N1CCOCC1)N1CCCC(n2cccn2)C1` (stereo not drawn) belongs 1.3%.
To `COc1ccc(CC(=O)N2CCCC(c3cc(C)[nH]n3)C2)cc1` (stereo not drawn) belongs -3.16%.
Consider `CS(=O)(=O)c1cccc(OCC(=O)N2CCCC2c2ccc[nH]2)c1` (stereo not drawn), for which the cytotoxicity at 70.5 h was -7.78%.
As to `O=C(NCCNc1ncccn1)c1ccc(Br)cc1`, the cytotoxicity at 70.5 h is -15.1%.
